Test results from US20090050143A1, “MEDICINAL FORMULATION CONTAINER WITH A TREATED METAL SURFACE” (priority 2006, published 2009).

Columns and labels:
Type in all cases: physicochemical
[1] = Valve deposition measurement
Text: Metered dose inhalers (MDIs) were fired 122 times to waste. The MDI was shaken for not less than 3 seconds prior to each actuation with a delay of at least 30 seconds between successive actuations. An additional 5 shots were then fired to waste with the MDI in a valve up orientation to clean out the valve. The metering valves were then removed from the MDIs and the outside of the stem cleaned to remove any residual drug adhering to the outer surface. The valve was immersed in diluent (acetonitrile:water 75:25 v/v) and sonicated for approximately 2 hours followed by shaking for at least 30 minutes. An aliquot was removed and analyzed for drug content by conventional HPLC analysis (albuterol sulfate and pirbuterol acetate: 55% 100 mM triethylamine phosphate with 5 mM sodium dodecyl sulfate, pH 2.5/45% methanol v:v, UV detection at 225 nm; flunisolide hemihydrate: 60% water/40% acetonitrile v:v, UV detection at 244 nm). Results are reported as an average of 5 to 8 replicates unless otherwise noted.
Individual valve components (stem, tank, spring, ferrule, and bottle emptier) were initially soaked in isopropanol (analytical reagent grade) for 30 minutes while exposed to ultrasonic agitation. Excess solvent was removed and the components were air dried.
The valve components were then immersed in a 0.1% w/w solution of A1 in methyl tertiary butyl ether (analytical reagent grade) in a sealed flask with a vacuum valve that was placed in a sonicator bath. The flask was sonicated and a vacuum was pulled until air escaped from the small bore in the stems (at least 2 minutes). The vacuum valve was then closed and the sample maintained under vacuum and sonication for an additional 30 minutes. Excess coating solution was then removed and the metering valves were rinsed and sonicated under vacuum in fresh isopropanol (analytical reagent grade) for 15 minutes. Excess rinsing solution was then removed and the metering valves were rinsed and sonicated under vacuum a second time in fresh isopropanol (analytical reagent grade) for 15 minutes. Excess rinsing solution was again removed and the metering valves were dried at 50° C. for at least 12 hours. The components were then assembled to form treated metered dose inhaler metering valves.
[…] Approximately 8.7 g of medicinal formulation was added to an aluminum canister with an internal coating of FEP (tetrafluoroethylene/hexafluoropropylene copolymer). The canister was then sealed by crimping a treated valve onto the canister to form an MDI. The MDIs were stored in a valve down orientation after filling to ensure contact of the formulation with the valve. The amount of albuterol sulfate adsorbed to the valve was 112 (+/−25) μg measured according to the valve deposition method described above.

[2] = Visual observation of the inside surface of the metering tanks
[3] = Triamcinolone acetonide remaining after storage with aluminum oxide powder (HPLC)
Protocol: Aluminum oxide powder (Aldrich, neutral, activated Brockmann I, 150 mesh), which mimics aluminum oxide existing on the inner surface of aluminum containers was surface treated by being immersed in a 0.1% w/w solution of A1 in methyl tertiary butyl ether (analytical reagent grade) for 30 minutes while exposed to ultrasonic agitation. The methyl tertiary butyl ether solution was decanted and the powder was allowed to air dry. A triamcinolone stock solution (4 mM) was prepared by adding triamcinolone acetonide to ethanol. Approximately 0.1 g of treated powder was then placed in a vial containing 2 mL of triamcinolone stock solution and stored at 70° C. An extract of the triamcinolone solution was taken after one day of storage and analyzed using high performance liquid chromatography to determine remaining drug content. The amount of drug remaining is reported (in Table 1) as a percentage of the initial amount of drug present and was determined as the average of 3 independent measurements.
Aluminum oxide powder was surface treated and tested as described above with a variety of other organic surface treatment compounds. The type of compound, the amount of triamcinolone acetonide (TA) remaining after 1 day storage, and the percentage of aluminum oxide (AO) powder remaining chemically treated after exposure to drug solution in shown in Table 1.
Approximately 0.1 g of untreated aluminum oxide powder was placed in a vial containing 2 mL of triamcinolone stock solution and stored at 70° C. An extract of the triamcinolone solution was taken after one day of storage and analyzed using high performance liquid chromatography to determine remaining drug content.

[4] = Triamcinolone acetonide remaining after storage in stainless steel canister (HPLC); conditions: 2 mM in ethanol
Protocol: (§1) The internal surface of a stainless steel metered dose inhaler canister was treated with compound A1 (n-C4F9—(CH2)11—PO3H2) as follows. The canister was initially soaked in heptane (analytical reagent grade) for 30 minutes while exposed to ultrasonic agitation. The canister was then rinsed with heptane (analytical reagent grade) for one minute followed by a rinse with isopropanol (analytical reagent grade) and allowed to air dry. The canister was then immersed in a 0.1% w/w solution of A1 in methyl tertiary butyl ether (analytical reagent grade) for 30 minutes while exposed to ultrasonic agitation. The canister was then rinsed in methyl tertiary butyl ether (analytical reagent grade) for one minute and allowed to air dry.
A triamcinolone stock solution (2 mM) was prepared by adding triamcinolone acetonide to ethanol. The canister was filled with 5 mL of the triamcinolone stock solution, sealed and stored at 70° C. An extract of the triamcinolone solution was taken after one day of storage and analyzed using high performance liquid chromatography to determine remaining drug content. […] An extract of the triamcinolone solution was taken after 7 days of storage and analyzed using high performance liquid chromatography to determine remaining drug content. The amount of triamcinolone acetonide remaining after 7 days was 83.0%.
An untreated stainless steel canister was filled with the medicinal formulation of Example 11. The amount of triamcinolone acetonide remaining after 1 day was 88.0%. An extract of the triamcinolone solution was taken after 7 days of storage and analyzed using high performance liquid chromatography to determine remaining drug content. The amount of triamcinolone acetonide remaining after 7 days was 18.0%.

[5] = Drug adsorption to aluminum MDI canister on storage; conditions: 3 days at room temperature
Protocol: as §1, with “an aluminum” for “a stainless steel”, “(n-C4F9—(CH2)11—PO3H2) which may be prepared as described in Example 2 of U.S. Pat. No. 6,824,882, the disclosure of which is hereby incorporated by reference)” for “(n-C4F9—(CH2)11—PO3H2)”
Fluticasone propionate was added to HFA-134A propellant to prepare a medicinal formulation with a fluticasone propionate concentration of 0.0083% w/w. Approximately 13 g of medicinal formulation was added to the treated canister which was sealed with an untreated aluminum blind ferrule (i.e., a casing member lacking valve components). The canister was stored in an upright position after filling to prevent contact of the medicinal formulation with the untreated aluminum surface of the blind ferrule. The solution was stored in the canister for 3 days at room temperature. The amount of fluticasone propionate adsorbed to the canister was 2.4% (+/−1.1%) measured according to the method described above.
A canister was prepared and tested as described in Example 1 with the exception that the canister was filled with a 0.0083% w/w formulation of fluticasone propionate in HFA-227. The solution was stored in the canister for 3 days at room temperature. The amount of fluticasone propionate adsorbed to the canister was 9.7% (+/−6.5%) measured according to the method described above.
An untreated aluminum canister was filled with the medicinal formulation of Example 1. The solution was stored in the canister for 3 days at room temperature. The amount of fluticasone propionate adsorbed to the canister was 23.2% (+/−1.5%) measured according to the method described above.
An untreated aluminum canister was filled with the medicinal formulation of Example 2. The solution was stored in the canister for 3 days at room temperature. The amount of fluticasone propionate adsorbed to the canister was 35.5% (+/−1.8%) measured according to the method described above.

[6] = Total drug content of canisters filled from stainless steel filling system (HPLC); conditions: 0.0083% w/w suspension in HFA-227a
Protocol: The vessel was initially soaked in heptane (analytical reagent grade) for 30 minutes while exposed to ultrasonic agitation. The vessel was then rinsed with heptane (analytical reagent grade) for one minute followed by a rinse with isopropanol (analytical reagent grade) and allowed to air dry. The vessel was then immersed in a 0.1% w/w solution of A1 in methyl tertiary butyl ether (analytical reagent grade) for 30 minutes while exposed to ultrasonic agitation. The vessel was then rinsed in methyl tertiary butyl ether (analytical reagent grade) for one minute and allowed to air dry. Additional components of the filling system that contact medicinal formulation during the filling process (solenoid, tubing, stirring paddles, mixing baffles) were treated in the same manner as the vessel.
HFA-227a (600.7 g) was chilled and added to the filling vessel. […] The total drug content (i.e., drug suspended in formulation, as well as drug adhered to the canister) of 6 representative canisters (numbers 9, 11, 13, 14, 16, and 18 in the filling sequence) was analyzed using high performance liquid chromatography. A target total drug content was calculated based on the exact amount of formulation added to each canister and the nominal concentration in the filling vessel. […]

[7] = A1-treated valve, 0.02% w/w in HFA-227
[8] = untreated valve, 0.02% w/w in HFA-227
[9] = A1-treated valve vs untreated valves, 0.02% w/w in HFA-227
[10] = A1-treated valve, 0.05% w/w and 10% w/w ethanol in HFA-227
[11] = untreated valve, 0.05% w/w and 10% w/w ethanol in HFA-227

## CC1(C)O[C@@H]2C[C@H]3[C@@H]4C[C@H](F)C5=CC(=O)C=C[C@]5(C)[C@H]4[C@@H](O)C[C@]3(C)[C@]2(C(=O)CO)O1 [flunisolide]
[1]; [7]
  amount of drug adsorbed to the valve: 23 (+/−7) μg
[1]; [8]
  amount of drug adsorbed to the valve: 41 (+/−7) μg
[2]; [9]
  visual observation of drug deposition in metering tanks: considerably less drug deposition

## CC(C)CCCC(C)CCCC(C)CCCC(C)CCP(=O)(O)O (stereo not drawn) [A2, 1-phosphono-3,7,11,15-tetramethylhexadecane]
[3]; 24 h, 4 mM
  % TA remaining: 97.4 (+/−0.1) %

## CC1(C)O[C@@H]2C[C@H]3[C@@H]4CCC5=CC(=O)C=C[C@]5(C)[C@@]4(F)[C@@H](O)C[C@]3(C)[C@]2(C(=O)CO)O1 [triamcinolone acetonide]
[3]; untreated aluminum oxide powder (C3), 4 mM triamcinolone acetonide in ethanol, 70° C, 1 day
  % TA remaining: 11.5 (+/−1.2) %
[4]; A1-treated stainless steel canister, 70° C, 1 day
  amount of triamcinolone acetonide remaining: 94.9%
[4]; A1-treated stainless steel canister, 70° C, 7 days
  amount of triamcinolone acetonide remaining: 83.0%
[4]; untreated stainless steel canister, 1 day
  amount of triamcinolone acetonide remaining: 88.0%
[4]; untreated stainless steel canister, 7 days
  amount of triamcinolone acetonide remaining: 18.0%

## pirbuterol acetate
[1]; [7]
  amount of drug adsorbed to the valve: 36 (+/−13) μg
[1]; [8]
  amount of drug adsorbed to the valve: 43 (+/−12) μg
[2]; [9]
  visual observation of drug deposition in metering tanks: considerably less drug deposition

## albuterol sulfate
[1]; [10]
  amount of drug adsorbed to the valve: 67 (+/−18) μg
[1]; A1-treated valve, 0.05% w/w in HFA-134A, stored valve down
  amount of drug adsorbed to the valve: 112 (+/−25) μg
[1]; A1-treated valve, 0.05% w/w in HFA-227
  amount of drug adsorbed to the valve: 134 (+/−54) μg
[1]; [11]
  amount of drug adsorbed to the valve: 75 (+/−9) μg
[1]; untreated valve, 0.05% w/w in HFA-134A
  amount of drug adsorbed to the valve: 138 (+/−24) μg
[1]; untreated valve, 0.05% w/w in HFA-227
  amount of drug adsorbed to the valve: 167 (+/−28) μg
[2]; A1-treated valve vs untreated valves, 0.05% w/w in HFA-134A
  visual observation of drug deposition in metering tanks: considerably less drug deposition
[2]; A1-treated valve vs untreated valves, 0.05% w/w in HFA-227
  visual observation of drug deposition in metering tanks: considerably less drug deposition
[2]; [10]
  visual observation of drug deposition in metering tanks: minimal drug deposition
[2]; [11]
  visual observation of drug deposition in metering tanks: minimal drug deposition

## CCCCCCCCCCCCCCCCP(=O)(O)O [A3, 1-phosphonohexadecane]
[3]; 24 h, 4 mM
  % TA remaining: 93.2 (+/−3.6) %

## CC(C)CCCC(C)CCCC(C)CCCC(C)CCC(=O)O (stereo not drawn) [A5, Phytanyl carboxylic acid]
[3]; 24 h, 4 mM
  % TA remaining: 71.5 (+/−3.2) %

## CCC(=O)O[C@]1(C(=O)SCF)[C@H](C)C[C@H]2[C@@H]3C[C@H](F)C4=CC(=O)C=C[C@]4(C)[C@@]3(F)[C@@H](O)C[C@@]21C [fluticasone propionate]
[5]; A1-treated aluminum canister, 0.0083% w/w in HFA-134A
  amount of fluticasone propionate adsorbed to the canister: 2.4%
[5]; A1-treated aluminum canister, 0.0083% w/w in HFA-227
  amount of fluticasone propionate adsorbed to the canister: 9.7%
[5]; untreated aluminum canister, 0.0083% w/w in HFA-134A
  amount of fluticasone propionate adsorbed to the canister: 23.2%
[5]; untreated aluminum canister, 0.0083% w/w in HFA-227
  amount of fluticasone propionate adsorbed to the canister: 35.5%
[6]; A1-treated stainless steel filling system, 6 canisters
  average total drug content in the filled canisters, less than the target total drug content: 2%
[6]; untreated stainless steel filling system
  average total drug content in the filled canisters, less than the target total drug content: 58%
